This assay concerns the target Recombinant human cathepsin S (CatS) (Homo sapiens, UniProt P25774). Description: Recombinant human cathepsin S (CatS) inhibition assay, fluorogenic substrate Z-Valine-Valine-Arginine-AMC.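 Also: Baculovirus-expressed CatS in pH 5.0 sodium acetate buffer with DTT and NaCl, fluorescence read each minute over 20 min, inhibition derived from rate slope.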

23 molecules from US20080200454A1, “CARBON-LINKED TETRAHYDRO-PYRAZOLO-PYRIDINE MODULATORS OF CATHEPSIN S” (priority 2007, published 2008) can be followed below.

Like-named read-outs stand apart in the source and are kept apart here.

As usually defined, the IC50 is the concentration that inhibits the measured activity by half.

Chain of Recombinant human cathepsin S (CatS) (P25774 115-331): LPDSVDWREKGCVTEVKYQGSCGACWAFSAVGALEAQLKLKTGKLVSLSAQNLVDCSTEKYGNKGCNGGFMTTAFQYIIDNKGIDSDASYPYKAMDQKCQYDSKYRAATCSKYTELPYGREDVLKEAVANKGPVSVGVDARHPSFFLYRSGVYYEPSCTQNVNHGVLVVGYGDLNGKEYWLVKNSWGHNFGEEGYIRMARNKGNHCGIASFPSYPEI

Take `CS(=O)(=O)N1CCc2c(c(-c3ccc(Cl)c(C#Cc4ccc(CNCc5ccc(Cl)cc5)cc4)c3)nn2CCCN2CCOCC2)C1` [Example 76, (4-Chloro-benzyl)-(4-{2-chloro-5-[5-methanesulfonyl-1-(3-morpholin-4-yl-propyl)-4,5,6,7-tetrahydro-1H-pyrazolo[4,3-c]pyridin-3-yl]-phenylethynyl}-benzyl)-amine]: the IC50 stood at 240 nM. On to `COC(=O)C1Cc2cc(C#Cc3cc(-c4nn(CCCN5CCOCC5)c5c4CN(S(C)(=O)=O)CC5)ccc3Cl)ccc2CN1C(=O)OC(C)(C)C` (centres unmarked) [Example 203, 2-(1,1-Dimethylethyl) 3-methyl 6-({2-chloro-5-[5-(methylsulfonyl)-1-(3-morpholin-4-ylpropyl)-4,5,6,7-tetrahydro-1H-pyrazolo[4,3-c]pyridin-3-yl]phenyl}ethynyl)-3,4-dihydroisoquinoline-2,3(1H)-dicarboxylate], for which the IC50 was 570 nM. Still for that read-out and setting: then `CS(=O)(=O)N1CCc2c(c(-c3ccc(Cl)c(C#Cc4ccc(Oc5ccc(I)cc5)cc4)c3)nn2CCCN2CCOCC2)C1` [Example 14, 3-{4-Chloro-3-[4-(4-iodo-phenoxy)-phenylethynyl]-phenyl}-5-methanesulfonyl-1-(3-morpholin-4-yl-propyl)-4,5,6,7-tetrahydro-1H-pyrazolo[4,3-c]pyridine], with 20000 nM. Turning to `CC(C)(C)OC(=O)N1Cc2ccc(C#Cc3cc(-c4nn(CCCN5CCOCC5)c5c4CN(S(C)(=O)=O)CC5)ccc3Cl)cc2C1` [Example 392, 1,1-Dimethylethyl 5-({2-chloro-5-[5-(methylsulfonyl)-1-(3-morpholin-4-ylpropyl)-4,5,6,7-tetrahydro-1H-pyrazolo[4,3-c]pyridin-3-yl]phenyl}ethynyl)-1,3-dihydro-2H-isoindole-2-carboxylate], the IC50 (CatS IC50) came to 180 nM. Consider `CS(=O)(=O)N1CCc2c(c(-c3ccc(Cl)c(C#Cc4ccc(CCC(=O)O)cc4)c3)nn2CCCN2CCOCC2)C1` [Example 9, 3-(4-{2-Chloro-5-[5-methanesulfonyl-1-(3-morpholin-4-yl-propyl)-4,5,6,7-tetrahydro-1H-pyrazolo[4,3-c]pyridin-3-yl]-phenylethynyl}-phenyl)-propionic acid], for which the IC50 was found to be 160 nM.

Turning to `CS(=O)(=O)N1CCc2c(c(-c3ccc(Cl)c(C#Cc4ccc(CNC5CCCC5)cc4)c3)nn2CCCN2CCOCC2)C1` [Example 325, N-{[4-({2-Chloro-5-[5-(methylsulfonyl)-1-(3-morpholin-4-ylpropyl)-4,5,6,7-tetrahydro-1H-pyrazolo[4,3-c]pyridin-3-yl]phenyl}ethynyl)phenyl]methyl}cyclopentanamine], the IC50 (CatS IC50) stood at 1450 nM. As for `CS(=O)(=O)N1CCc2c(c(-c3ccc(Cl)c(C#Cc4cccc(CNCc5ccc(Cl)cc5)c4)c3)nn2CCCN2CCN(c3ccccn3)CC2)C1` [Example 447, 1-{3-[(2-Chloro-5-{5-(methylsulfonyl)-1-[3-(4-pyridin-2-ylpiperazin-1-yl)propyl]-4,5,6,7-tetrahydro-1H-pyrazolo[4,3-c]pyridin-3-yl}phenyl)ethynyl]phenyl}-N-[(4-chlorophenyl)methyl]methanamine], the IC50 (CatS IC50) was 70 nM. On to `CS(=O)(=O)N1CCc2c(c(-c3ccc(Cl)c(C#Cc4ccc(Cl)cc4)c3)nn2CC(O)CN2CCC(N3CCCC3=O)CC2)C1` (centres unmarked) [Example 123], for which the IC50 stood at 10 nM. For the molecule `NC(=O)C(=O)N1CCc2c(c(-c3ccc(Cl)c(C#Cc4ccc(Cl)c(C(=O)NC[C@@H]5CCCN5)c4)c3)nn2CCCN2CCSCC2)C1` [Example 557, 5-[(5-{5-[Amino(oxo)acetyl]-1-(3-thiomorpholin-4-ylpropyl)-4,5,6,7-tetrahydro-1H-pyrazolo[4,3-c]pyridin-3-yl}-2-chlorophenyl)ethynyl]-2-chloro-N-[(2S)-pyrrolidin-2-ylmethyl]benzamide], the IC50 stood at 30 nM.

On to `C[C@H]1COCCN1C[C@H](O)Cn1nc(-c2ccc(Cl)c(C#Cc3ccc(CNCc4ccc(Cl)cc4)cc3)c2)c2c1CCN(C(=O)C(N)=O)C2` [Example 255, 2-{3-(4-Chloro-3-{4-[(4-chloro-benzylamino)-methyl]-phenylethynyl}-phenyl)-1-[(2S)-2-hydroxy-3-((3S)-3-methyl-morpholin-4-yl)-propyl]-1,4,6,7-tetrahydro-pyrazolo[4,3-c]pyridin-5-yl}-2-oxo-acetamide], for which the IC50 (CatS IC50) amounted to 70 nM. Consider `CC(C)(C)OC(=O)NCc1ccccc1C#Cc1cc(-c2nn(CCCN3CCOCC3)c3c2CN(S(C)(=O)=O)CC3)ccc1Cl` [Example 384, 1,1-Dimethylethyl {[2-({2-chloro-5-[5-(methylsulfonyl)-1-(3-morpholin-4-ylpropyl)-4,5,6,7-tetrahydro-1H-pyrazolo[4,3-c]pyridin-3-yl]phenyl}ethynyl)phenyl]methyl}carbamate], for which the IC50 is 2790 nM. Consider `CC(C)(C)OC(=O)N1CCc2ccc(C#Cc3cc(-c4nn(CCCN5CCOCC5)c5c4CN(S(C)(=O)=O)CC5)ccc3Cl)cc2C1` [Example 370, 1,1-Dimethylethyl 7-({2-chloro-5-[5-(methylsulfonyl)-1-(3-morpholin-4-ylpropyl)-4,5,6,7-tetrahydro-1H-pyrazolo[4,3-c]pyridin-3-yl]phenyl}ethynyl)-3,4-dihydroisoquinoline-2(1H)-carboxylate], for which the IC50 is 720 nM. As for `CC1(C)CCN(CCCn2nc(-c3ccc(Cl)c(C#Cc4ccc(CNCc5ccc(Cl)cc5)cc4)c3)c3c2CCN(S(C)(=O)=O)C3)CC1` [Example 355, 1-{4-[(2-Chloro-5-{1-[3-(4,4-dimethylpiperidin-1-yl)propyl]-5-(methylsulfonyl)-4,5,6,7-tetrahydro-1H-pyrazolo[4,3-c]pyridin-3-yl}phenyl)ethynyl]phenyl}-N-[(4-chlorophenyl)methyl]methanamine], the IC50 (CatS IC50) stood at 110 nM.

For `CCOC(=O)CN1CCc2cc(C#Cc3cc(-c4nn(CCCN5CCOCC5)c5c4CN(S(C)(=O)=O)CC5)ccc3Cl)ccc2C1` [Example 526, Ethyl [6-({2-chloro-5-[5-(methylsulfonyl)-1-(3-morpholin-4-ylpropyl)-4,5,6,7-tetrahydro-1H-pyrazolo[4,3-c]pyridin-3-yl]phenyl}ethynyl)-3,4-dihydroisoquinolin-2(1H)-yl]acetate], the concentration for half-maximal inhibition (IC50) (CatS IC50) stood at 370 nM. Take `CCNCc1cc(C#Cc2cc(-c3nn(CCCN4CCCCC4)c4c3CN(C(=O)C(N)=O)CC4)ccc2Cl)ccc1Cl` [Example 592, 2-{3-[4-Chloro-3-({4-chloro-3-[(ethylamino)methyl]phenyl}ethynyl)phenyl]-1-(3-piperidin-1-ylpropyl)-1,4,6,7-tetrahydro-5H-pyrazolo[4,3-c]pyridin-5-yl}-2-oxoacetamide]: the IC50 stood at 20 nM. `NC(=O)N1CCc2c(c(-c3ccc(Cl)c(C#Cc4ccc(Cl)c(CNC5CC5)c4)c3)nn2CCCN2CCSCC2)C1` [Example 605, 3-[4-Chloro-3-({4-chloro-3-[(cyclopropylamino)methyl]phenyl}ethynyl)phenyl]-1-(3-thiomorpholin-4-ylpropyl)-1,4,6,7-tetrahydro-5H-pyrazolo[4,3-c]pyridine-5-carboxamide]: the IC50 (CatS IC50) is 40 nM.

As to `CS(=O)(=O)N1CCc2c(c(-c3ccc(Cl)c(CCc4ccc(CO)cc4)c3)nn2CCCN2CCOCC2)C1` [Example 61, [4-(2-{2-Chloro-5-[5-methanesulfonyl-1-(3-morpholin-4-yl-propyl)-4,5,6,7-tetrahydro-1H-pyrazolo[4,3-c]pyridin-3-yl]-phenyl}-ethyl)-phenyl]-methanol], the IC50 came to 200 nM.

With `CS(=O)(=O)N1CCc2c(c(-c3ccc(Cl)c(C#Cc4ccc(CNCc5ccc(Cl)cc5)c(Cl)c4)c3)nn2CCCN2CCOCC2)C1` [Example 546, 1-[2-Chloro-4-({2-chloro-5-[5-(methylsulfonyl)-1-(3-morpholin-4-ylpropyl)-4,5,6,7-tetrahydro-1H-pyrazolo[4,3-c]pyridin-3-yl]phenyl}ethynyl)phenyl]-N-[(4-chlorophenyl)methyl]methanamine], the IC50 (CatS IC50) came to 300 nM. In the case of `COC(=O)Cc1cccc(C#Cc2cc(-c3nn(CCCN4CCOCC4)c4c3CN(S(C)(=O)=O)CC4)ccc2Cl)c1` [Example 11, (3-{2-Chloro-5-[5-methanesulfonyl-1-(3-morpholin-4-yl-propyl)-4,5,6,7-tetrahydro-1H-pyrazolo[4,3-c]pyridin-3-yl]-phenylethynyl}-phenyl)-acetic acid methyl ester], the IC50 was 2600 nM. For `NC(=O)N1CCc2c(c(-c3ccc(Cl)c(C#Cc4ccc(CNCc5ccccc5Cl)cc4)c3)nn2CCCN2CCSCC2)C1` [Example 488, 3-(4-Chloro-3-{[4-({[(2-chlorophenyl)methyl]amino}methyl)phenyl]ethynyl}phenyl)-1-(3-thiomorpholin-4-ylpropyl)-1,4,6,7-tetrahydro-5H-pyrazolo[4,3-c]pyridine-5-carboxamide], the IC50 (CatS IC50) is 140 nM. Turning to `C[C@H]1COCCN1CCCn1nc(-c2ccc(Cl)c(C#Cc3ccc(Cl)c(C(=O)NC[C@@H]4CCCN4)c3)c2)c2c1CCN(C(=O)C(N)=O)C2` [Example 556, 5-{[5-(5-[Amino(oxo)acetyl]-1-{3-[(3S)-3-methylmorpholin-4-yl]propyl}-4,5,6,7-tetrahydro-1H-pyrazolo[4,3-c]pyridin-3-yl)-2-chlorophenyl]ethynyl}-2-chloro-N-[(2S)-pyrrolidin-2-ylmethyl]benzamide], the IC50 came out at 30 nM. For the molecule `CS(=O)(=O)N1CCc2c(c(-c3ccc(Cl)c(C#Cc4ccc(CNCc5ccc(Cl)cc5)cc4)c3)nn2CCCN2CCC(N3CCOCC3)CC2)C1` [Example 343, 1-{4-[(2-Chloro-5-{5-(methylsulfonyl)-1-[3-(4-morpholin-4-ylpiperidin-1-yl)propyl]-4,5,6,7-tetrahydro-1H-pyrazolo[4,3-c]pyridin-3-yl}phenyl)ethynyl]phenyl}-N-[(4-chlorophenyl)methyl]methanamine], the IC50 (CatS IC50) came out at 40 nM. For `CS(=O)(=O)N1CCc2c(c(-c3ccc(Cl)c(C#Cc4ccc(CNCc5ccc(Cl)cc5)cc4)c3)nn2CCCN2CCC(O)CC2)C1` [Example 330, 1-{3-[3-(4-Chloro-3-{[4-({[(4-chlorophenyl)methyl]amino}methyl)phenyl]ethynyl}phenyl)-5-(methylsulfonyl)-4,5,6,7-tetrahydro-1H-pyrazolo[4,3-c]pyridin-1-yl]propyl}piperidin-4-ol], the IC50 (CatS IC50) was determined as 90 nM.
